Data published in patent US4468511A, “C-20- And C-23-Modified macrolide derivatives” (Eli Lilly and Company, priority 1983, dated 1984).
In brackets after ≈: the same amount, converted by molar mass. Like-named read-outs stand apart in the source and are kept apart here.

How the values were obtained:
[1] = tested on: Staphylococcus epidermidis EPI1; assay: microbe, parasite or virus in culture; assay type: cell-based; details: Staphylococcus epidermidis, EPI1
Procedure: (§1) The MIC's in Table II were determined by standard agar-dilution assays. The MIC's in Table III were obtained using a conventional broth-dilution microtiter test.

[2] = tested on: Staphylococcus aureus S13E; assay: microbe, parasite or virus in culture; assay type: cell-based
Procedure: as §1

Pasteurella multocida = assay: Pasteurella infection in one-day old chicks; assay type: in vivo; details: subcutaneous, 30 mg/kg × 2, 1 and 4 hours post-challenge
Procedure: Certain of the formula 1 compounds of this invention have also shown in vivo activity against infections induced by gram-negative bacteria. Table V summarizes the results of tests in which illustrative compounds were evaluated against a Pasteurella infection in one-day old chicks. The compounds were administered parenterally after challenge of the chicks with Pasteurella multocida (0.1 ml of a 10^-4 dilution of a twenty-hour tryptose broth culture of an avian P. multocida given subcutaneously). In these tests, unless indicated otherwise, all non-medicated infected chicks died within 24 hours of Pasteurella challenge. In the tests summarized in Table V, the compounds were administered by subcutaneous injection at a dosage of 30 mg/kg, 1 and 4 hours post-challenge of the chicks with P. multocida.

[3] = tested on: Streptococcus pyogenes C203; assay: Protection of mice experimentally infected with S. pyogenes C203; assay type: in vivo
Procedure: Some of the derivatives of this invention have shown in vivo antimicrobial activity against experimentally-induced infections in laboratory animals. When two doses of test compound were administered to mice experimentally infected with S. pyogenes C203, the activity observed was measured as an ED50 value [effective dose in mg/kg to protect 50% of the test animals: see Warren Wick, et al., J. Bacteriol. 81, 233-235 (1961)].

[4] = tested on: Mycoplasma gallisepticum 34159; assay: MIC, conventional broth-dilution microtiter test; assay type: cell-based; details: Mycoplasmoides gallisepticum
In short: (§2)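 Agar plates containing graded compound levels gave the Klebsiella value. Graded broth dilutions in microtiter plates gave the Pasteurella and Mycoplasma values.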

[5] = tested on: Mycoplasma gallisepticum 41313; assay: MIC, conventional broth-dilution microtiter test; assay type: cell-based; details: Mycoplasmoides gallisepticum
In short: as §2

[6] = tested on: Pasteurella hemolytica 22C; assay: MIC, conventional broth-dilution microtiter test; assay type: cell-based
In short: as §2

Staphylococcus aureus = assay: MIC, conventional broth-dilution microtiter test; assay type: cell-based
Procedure: (§3) Certain of the derivatives are active against some gram-negative bacteria, such as Pasteurella species. The MIC's in Table II were determined by standard agar-dilution assays. The MIC's in Table III were obtained using a conventional broth-dilution microtiter test.

[7] = tested on: Pasteurella multocida 60A; assay: MIC, conventional broth-dilution microtiter test; assay type: cell-based
In short: as §2

[8] = tested on: Pasteurella hemolytica 23C; assay: MIC, conventional broth-dilution microtiter test; assay type: cell-based
In short: as §2

Mycoplasma hyorhinis = assay: MIC, conventional broth-dilution microtiter test; assay type: cell-based
In short: as §2

[9] = tested on: Pasteurella multocida 68C; assay: MIC, conventional broth-dilution microtiter test; assay type: cell-based
In short: as §2

[10] = tested on: Pasteurella hemolytica 41D; assay: MIC, conventional broth-dilution microtiter test; assay type: cell-based
In short: as §2

Mycoplasma synoviae = assay: MIC, conventional broth-dilution microtiter test; assay type: cell-based; details: Mycoplasmopsis synoviae
In short: as §2

Streptococcus sp. 80 = assay: MIC, conventional broth-dilution microtiter test; assay type: cell-based
Procedure: as §3

Mycoplasma gallisepticum = assay: MIC, conventional broth-dilution microtiter test; assay type: cell-based; details: Mycoplasmoides gallisepticum
In short: as §2

[11] = tested on: Pasteurella multocida 17E; assay: MIC, conventional broth-dilution microtiter test; assay type: cell-based
In short: as §2

[12] = tested on: Pasteurella multocida 40G; assay: MIC, conventional broth-dilution microtiter test; assay type: cell-based
In short: as §2

[13] = tested on: Pasteurella multocida 22A; assay: MIC, conventional broth-dilution microtiter test; assay type: cell-based
In short: as §2

[14] = tested on: Staphylococcus aureus V41; assay: MIC, standard agar-dilution assay; assay type: cell-based
Procedure: as §3

[15] = tested on: Streptococcus pneumoniae Park I; assay: MIC, standard agar-dilution assay; assay type: cell-based; details: Streptococcus pneumoniae
Procedure: as §3

[16] = tested on: Klebsiella pneumoniae X26; assay: MIC, standard agar-dilution assay; assay type: cell-based; details: Klebsiella pneumoniae, X26
In short: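 Two formats were used. Broth dilution in microtiter plates served for Pasteurella and Mycoplasma, while agar dilution served for Klebsiella.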

[17] = tested on: Streptococcus pyogenes C203; assay: MIC, standard agar-dilution assay; assay type: cell-based
Procedure: as §3

Escherichia coli EC14 = assay: MIC, standard agar-dilution assay; assay type: cell-based; details: Escherichia coli, EC14
Procedure: as §3

[18] = tested on: Staphylococcus aureus X1.1; assay: MIC, standard agar-dilution assay; assay type: cell-based; details: Staphylococcus aureus, X1.1
In short: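 A standard agar-dilution assay was used to test compounds against the Staphylococcus aureus isolate X1.1. Bacterial growth on agar with different compound concentrations was assessed, and the minimum inhibitory concentration was recorded in ug/mL.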

[19] = tested on: Streptococcus Group D X66; assay: MIC, standard agar-dilution assay; assay type: cell-based
Procedure: as §3

[20] = tested on: Streptococcus pyogenes 9960; assay: MIC, standard agar-dilution assay; assay type: cell-based
Procedure: as §3

Escherichia coli TEM = assay: MIC, standard agar-dilution assay; assay type: cell-based; details: Escherichia coli
In short: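 Antibacterial activity toward the gram-negative organism Escherichia coli was assessed by conventional agar dilution. The MIC, reported in ug/mL, is the minimum compound concentration on agar that prevents growth.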

[21] = tested on: Klebsiella pneumoniae KAE; assay: MIC, standard agar-dilution assay; assay type: cell-based
In short: as §2

[22] = tested on: Haemophilus influenzae C.L.; assay: MIC, standard agar-dilution assay; assay type: cell-based; details: Haemophilus influenzae
Procedure: as §1

[23] = tested on: Staphylococcus aureus X400; assay: MIC, standard agar-dilution assay; assay type: cell-based; details: Staphylococcus aureus, X400
Procedure: as §1

[24] = tested on: Staphylococcus epidermidis EPI2; assay: MIC, standard agar-dilution assay; assay type: cell-based; details: Staphylococcus epidermidis, EPI2
Procedure: as §1

[25] = tested on: Haemophilus influenzae 76; assay: MIC, standard agar-dilution assay; assay type: cell-based
Procedure: as §1

CCC1OC(=O)CC(O)C(C)C(OC2OC(C)C(O)C(N(C)C)C2O)C(CCOC(=O)Cc2ccccc2)CC(C)C(=O)C=CC(C)=CC1CO (centres unmarked) [Compound 1, 20-O-Phenylacetyl-20-dihydro-OMT]
MIC [1]: 0.5 µg/mL (≈ 0.696 µM) | MIC [2]: 1 µg/mL (≈ 1.39 µM) | Number of Deaths/Number Treated (Pasteurella multocida): 9/10 | ED50 ([3]; C203, po, read-out: ED50 Oral): > 100 mg/kg | ED50 ([3]; C203, sc, read-out: ED50 Subcutaneous): > 30 mg/kg | MIC [4]; 34159: 6.25 µg/mL (≈ 8.71 µM) | MIC [5]; 41313: 50 µg/mL (≈ 69.6 µM) | MIC ([6]; Pasteurella, 22C): 25 µg/mL (≈ 34.8 µM) | MIC (Staphylococcus aureus): 3.12 µg/mL (≈ 4.35 µM) | MIC ([7]; Pasteurella multocida, 60A): 25 µg/mL (≈ 34.8 µM) | MIC ([8]; Pasteurella, 23C): 12.5 µg/mL (≈ 17.4 µM) | MIC (Mycoplasma hyorhinis; Mycoplasma): > 50 µg/mL | MIC ([9]; Pasteurella multocida, 68C): 6.25 µg/mL (≈ 8.71 µM) | MIC ([10]; Pasteurella, 41D): 12.5 µg/mL (≈ 17.4 µM) | MIC (Mycoplasma synoviae): 50 µg/mL (≈ 69.6 µM) | MIC (Streptococcus sp. 80; Streptococcus, SP.80): 3.12 µg/mL (≈ 4.35 µM) | MIC (Mycoplasma gallisepticum): 3.12 µg/mL (≈ 4.35 µM) | MIC ([11]; Pasteurella multocida, 17E): 12.5 µg/mL (≈ 17.4 µM) | MIC ([12]; Pasteurella multocida, 40G): 25 µg/mL (≈ 34.8 µM) | MIC ([13]; Pasteurella multocida, 22A): 25 µg/mL (≈ 34.8 µM) | MIC ([14]; Staphylococcus aureus, V41): 1 µg/mL (≈ 1.39 µM) | MIC [15]: 0.5 µg/mL (≈ 0.696 µM) | MIC [16]: 4 µg/mL (≈ 5.57 µM) | MIC ([17]; Streptococcus pyogenes, C203): 1 µg/mL (≈ 1.39 µM) | MIC (Escherichia coli EC14): 64 µg/mL (≈ 89.1 µM) | MIC [18]: 1 µg/mL (≈ 1.39 µM) | MIC [19]: 2 µg/mL (≈ 2.79 µM) | MIC [20]; 9960: 2 µg/mL (≈ 2.79 µM) | MIC (Escherichia coli TEM): 16 µg/mL (≈ 22.3 µM) | MIC ([21]; Klebsiella pneumoniae): > 128 µg/mL | MIC [22]: 16 µg/mL (≈ 22.3 µM) | MIC [23]: 2 µg/mL (≈ 2.79 µM) | MIC [24]: 1 µg/mL (≈ 1.39 µM) | MIC ([25]; Haemophilus influenzae, 76): 16 µg/mL (≈ 22.3 µM)

CCC1OC(=O)CC(O)C(C)C(OC2OC(C)C(O)C(N(C)C)C2O)C(CCNCc2ccccc2)CC(C)C(=O)C=CC(C)=CC1CO (centres unmarked) [Compound 4, 20-N-Benzylamino-20-deoxy-20-dihydro-OMT]
MIC [1]: 4 µg/mL (≈ 5.81 µM) | MIC [2]: 8 µg/mL (≈ 11.6 µM) | Number of Deaths/Number Treated (Pasteurella multocida): 1/10 | ED50 ([3]; C203, mice, oral, mg/kg × 2, doses given 1 and 4 hours postinfection, read-out: ED50 Oral): > 100 mg/kg | ED50 ([3]; C203, sc, mice, subcutaneous, mg/kg × 2, doses given 1 and 4 hours postinfection, read-out: ED50 Subcutaneous): 16.1 mg/kg | MIC ([4]; broth-dilution microtiter, Mycoplasma gallisepticum 34159, Resistant strain, read-out: MIC): 50 µg/mL (≈ 72.6 µM) | MIC ([5]; broth-dilution microtiter, Mycoplasma gallisepticum 41313, Resistant strain, read-out: MIC): 50 µg/mL (≈ 72.6 µM) | MIC ([6]; broth-dilution microtiter, Pasteurella hemolytica 22C, read-out: MIC): 6.25 µg/mL (≈ 9.07 µM) | MIC (Staphylococcus aureus; broth-dilution microtiter, read-out: MIC): 12.5 µg/mL (≈ 18.1 µM) | MIC ([7]; broth-dilution microtiter, Pasteurella multocida 60A, Avian isolate, read-out: MIC): 3.12 µg/mL (≈ 4.53 µM) | MIC ([8]; broth-dilution microtiter, Pasteurella hemolytica 23C, read-out: MIC): 6.25 µg/mL (≈ 9.07 µM) | MIC (Mycoplasma hyorhinis; broth-dilution microtiter, Mycoplasma hyorhinis, read-out: MIC): 50 µg/mL (≈ 72.6 µM) | MIC ([9]; broth-dilution microtiter, Pasteurella multocida 68C, read-out: MIC): 3.12 µg/mL (≈ 4.53 µM) | MIC ([10]; broth-dilution microtiter, Pasteurella hemolytica 41D, read-out: MIC): 6.25 µg/mL (≈ 9.07 µM) | MIC (Mycoplasma synoviae; broth-dilution microtiter, Mycoplasma synoviae, read-out: MIC): 12.5 µg/mL (≈ 18.1 µM) | MIC (Streptococcus sp. 80; broth-dilution microtiter, Streptococcus sp. 80, read-out: MIC): 6.25 µg/mL (≈ 9.07 µM) | MIC (Mycoplasma gallisepticum; broth-dilution microtiter, Mycoplasma gallisepticum, read-out: MIC): 3.12 µg/mL (≈ 4.53 µM) | MIC ([11]; broth-dilution microtiter, Pasteurella multocida 17E, Bovine isolate, read-out: MIC): 3.12 µg/mL (≈ 4.53 µM) | MIC ([12]; broth-dilution microtiter, Pasteurella multocida 40G, read-out: MIC): 6.25 µg/mL (≈ 9.07 µM) | MIC ([13]; broth-dilution microtiter, Pasteurella multocida 22A, read-out: MIC): 12.5 µg/mL (≈ 18.1 µM) | MIC ([14]; agar-dilution, Staphylococcus aureus V41, Penicillin-resistant strain, read-out: MIC): 16 µg/mL (≈ 23.2 µM) | MIC [15]: 2 µg/mL (≈ 2.9 µM) | MIC [16]: 8 µg/mL (≈ 11.6 µM) | MIC ([17]; agar-dilution, Streptococcus pyogenes C203, read-out: MIC): 4 µg/mL (≈ 5.81 µM) | MIC (Escherichia coli EC14): 128 µg/mL (≈ 186 µM) | MIC [18]: 8 µg/mL (≈ 11.6 µM) | MIC [19]: 16 µg/mL (≈ 23.2 µM) | MIC ([20]; agar-dilution, Streptococcus 9960, read-out: MIC): 32 µg/mL (≈ 46.5 µM) | MIC (Escherichia coli TEM): 8 µg/mL (≈ 11.6 µM) | MIC ([21]; agar-dilution, Klebsiella pneumoniae KAE, read-out: MIC): > 128 µg/mL | MIC [22]: 2 µg/mL (≈ 2.9 µM) | MIC [23]: 32 µg/mL (≈ 46.5 µM) | MIC [24]: 32 µg/mL (≈ 46.5 µM) | MIC ([25]; agar-dilution, Haemophilus influenzae 76, Ampicillin-resistant strain, read-out: MIC): 2 µg/mL (≈ 2.9 µM)
